Reference: PubChem BioAssay (NCI)
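Results reflect a 48-hour exposure of cells in 96-well plates to compound at five concentrations. The concentration for 50% growth inhibition is given as GI50. TGI marks complete inhibition of growth.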 Where a SMILES comes first, the peptide text is derived from it. [ ]: non-standard residue; d: D form. Phe(4-Cl) = N[CH](Cc1ccc(Cl)cc1)C(=O)O

What was measured:
Test in all cases: NCI anticancer screen, dose series, 48 h
COLO 205 colon = system: COLO 205 colon
U251 CNS = system: U251 CNS
NCI-H23 lung = system: NCI-H23 lung
HOP-92 NSCLC = system: HOP-92 NSCLC
HOP-62 NSCLC = system: HOP-62 NSCLC
ACHN renal = system: ACHN renal
TK-10 renal = system: TK-10 renal

| Compound | GI50 (COLO 205 colon) [µM] | TGI (COLO 205 colon) [µM] | GI50 (U251 CNS) [µM] | TGI (U251 CNS) [µM] | GI50 (NCI-H23 lung) [µM] | TGI (NCI-H23 lung) [µM] | GI50 (HOP-92 NSCLC) [µM] | TGI (HOP-92 NSCLC) [µM] | GI50 (HOP-62 NSCLC) [µM] | TGI (HOP-62 NSCLC) [µM] | GI50 (ACHN renal) [µM] | TGI (ACHN renal) [µM] | GI50 (TK-10 renal) [µM] | TGI (TK-10 renal) [µM] |
| --- | --- | --- | --- | --- | --- | --- | --- | --- | --- | --- | --- | --- | --- | --- |
| N.N.N.N.N.O=C([O-])c1nn[n-]n1.[Cl-].[Co+3] | > 100 | > 100 | > 100 | > 100 | > 100 | > 100 | > 100 | > 100 | > 100 | > 100 | > 100 | > 100 | > 100 | > 100 |
| CC(C)(C)OC(=O)Cc1ccc2c(ccn2Cc2ccccc2)c1 |  | > 100 |  | > 100 |  | > 100 |  | > 100 |  | > 100 |  | > 100 |  | > 100 |
| COC(=O)C1=NC(=S)NC(c2ccccc2)C1c1nc2ccccc2s1 (stereo not drawn) |  | > 100 |  | > 100 |  | > 100 |  | > 100 |  | > 100 |  | > 100 |  | > 100 |
| COc1ccc(-c2cn3ccsc3n2)cc1 |  | > 100 |  | > 100 |  | > 100 |  | > 100 |  | > 100 |  | > 100 |  | > 100 |
| Cc1ccc(N(C(=O)CC(=O)NN)C(=O)c2ccccc2Cl)cc1 |  | > 100 |  | > 100 |  | > 100 |  | > 100 |  | > 100 |  | > 100 |  |  |
| CC(C)=CCC/C(=C/CC/C(C)=C/CCc1ccoc1)C(=O)O |  | > 100 |  | > 100 |  | > 100 |  | > 100 |  | > 100 |  | > 100 |  |  |
| Cc1noc(C)c1CCCOC1COc2ccccc2OCCOCCOc2ccccc2OC1 |  | > 100 |  | > 100 |  | > 100 |  |  |  | > 100 |  | > 100 |  | > 100 |
| COC(=O)c1cc(Br)c(Br)n1C |  | > 100 |  | > 100 |  | > 100 |  | > 100 |  | > 100 |  | > 100 |  | > 100 |
| CC(=O)[CH-]C(=O)c1ccccc1.CC(=O)[CH-]C(=O)c1ccccc1.O=C([O-])c1ccc([O-])cc1.O=C([O-])c1ccc([O-])cc1.[Ti+4] | 20.6 | 40.1 | 45 | > 100 | 66.2 | > 100 |  |  | 35.1 | > 100 | 75 | > 100 |  |  |
| CN(C)P(=O)(/C(N)=N/Nc1ccc([N+](=O)[O-])cc1)N(C)C |  | > 100 |  | > 100 |  | > 100 |  | > 100 |  | > 100 |  | > 100 |  | > 100 |
| CCOC(=O)CN=c1nc(SC)sc2c(C(=O)OCC)nc(Sc3ccccc3)n12 |  | > 100 |  |  |  |  |  | > 100 |  | > 100 |  |  |  | > 100 |
| CCOC1=NC(=O)CC(c2ccccc2)S1 (stereo not drawn) |  | > 100 |  | > 100 |  |  |  | > 100 |  |  |  | > 100 |  |  |
| O=C(O)CP(=S)(S)c1ccccc1 (stereo not drawn) |  | > 100 |  | > 100 |  | > 100 |  | > 100 |  | > 100 |  | > 100 |  | > 100 |
| Cc1ccc(S(=O)(=O)n2c(-c3ccccc3)c(-c3ccccc3)c3ccccc32)cc1 |  | > 100 |  | > 100 |  | > 100 |  | > 100 |  | > 100 |  | > 100 |  | > 100 |
| Cc1cccc(NC(=O)C(=O)Cc2nc3ccccc3[nH]c2=O)c1C |  | > 100 |  | > 100 |  | > 100 |  | > 100 |  | > 100 |  | > 100 |  | > 100 |
| Cc1ccc(Nc2nc3c(s2)C(=O)c2ccccc2C3=O)c(C)c1 |  | 35.2 |  | 42.5 |  | 25.6 |  | 22.9 |  | 30.5 |  | 30.6 |  | 36.6 |
| Nc1ccc(/C=C/c2ccnc3ccccc23)cc1 |  | 48.6 |  | 59.4 |  | 50.1 |  | 50.9 |  | 41.5 |  | > 100 |  | 57.7 |
| Cc1ccccc1N(CCC#N)C1=NN(C(=O)CC(=O)Nc2ccccc2)C(c2ccccc2)C1 (stereo not drawn) |  | > 100 |  | > 100 |  | > 100 |  | > 100 |  | > 100 |  | > 100 |  |  |
| O=c1cccccc1NCCCNc1cccccc1=O |  | > 100 |  | > 100 |  | > 100 |  | > 100 |  | > 100 |  | > 100 |  |  |
| CC[O-].CC[O-].O=C1c2ccccc2C(=O)c2c(O)ccc([O-])c21.O=C1c2ccccc2C(=O)c2c(O)ccc([O-])c21.[Ti+4] |  | > 100 |  |  |  | > 100 |  |  |  | > 100 |  | > 100 |  | > 100 |
| O=C(O)CN(c1ccccc1)S(=O)(=O)c1ccccc1[N+](=O)[O-] |  | > 100 |  | > 100 |  | > 100 |  | > 100 |  |  |  | > 100 |  | > 100 |
| CC(O)C(NC(=O)C(Cc1ccccc1)NC(=O)C(NC(=O)C(CCCCN)NC(=O)C(Cc1c[nH]c2ccccc12)NC(=O)C(Cc1ccc(O)cc1)NC(=O)C(Cc1ccc(Cl)cc1)NC(=O)C(N)Cc1ccccc1)C(C)O)C(N)=O (stereo not drawn) (H-F[Phe(4-Cl)]YWKTFT-NH2; configuration not given here) |  | 51.7 |  | 35.8 |  | 41.2 |  |  |  | 38.5 |  | 40.9 |  |  |
